The values that follow come from patent publication US20190030166A1, “PERCUTANEOUSLY ABSORBABLE COMPOSITION CONTROLLED IN RELEASE OF WATER-SOLUBLE EFFECTIVE INGREDIENT” (NISSAN CHEMICAL CORPORATION, priority 2016, published 2019).

Peptide text beside a SMILES is read from it.

Test in one series: not given
Conditions: not given
How it is done: Solubilization of the complex with citronellal or citral in ethanol was examined while keeping the amino acid as crystal. The amino acids are different in the crystalline state in the commercial products depending on the kind thereof, so that there were fear that the results might cause fluctuation. Thus, an operation for enlarging the surface in contact with the liquid was added by making the difference due to crystals small as well as making the surface area as much as possible. Specifically, the crystals of the amino acids were ground in a mortar and then sieved through a 100 μm sieve to provide powders, which were used in the present test.
The amount and heating time of citronellal or citral necessary for solubilizing the obtained complex in ethanol, and the dispersed state of the obtained complex in ethanol was confirmed.
For the compound `CC(C)[C@H](N)C(=O)O` [Valine, L-valine], the “Amount of citral necessary for solubilizing in ethanol” value (from here on “Amount of citral necessary”) was found to be 700 mg and the “Heating time necessary for solubilizing in ethanol” value (from here on “Heating time necessary”) turned out to be 3 h.
As to `N[C@@H](CS)C(=O)O` [L-cysteine], the “Amount of citronellal necessary for solubilizing in ethanol” value (shortened to “Amount of citronellal necessary”) amounted to 700 mg and the “Heating time necessary” value was found to be 0.33 h.
With `NC(=O)CC[C@H](N)C(=O)O` [Glutamine, L(+)-glutamine], the “Amount of citral necessary” value is reported as 700 mg and the “Heating time necessary” value is recorded as 24 h.
As for `N[C@@H](Cc1c[nH]cn1)C(=O)O` [Histidine, L-histidine], the “Amount of citronellal necessary” value came to 700 mg and the “Heating time necessary” value worked out at 17.5 h.
Regarding `C[C@H](N)C(=O)O` [L-Alanine, L-alanine], the “Amount of citral necessary” value came out at 700 mg and the “Heating time necessary” value was 5 h.
`CC[C@H](C)[C@H](N)C(=O)O` [Isoleucine, L(+)-isoleucine]: the “Amount of citral necessary” value was 700 mg and the “Heating time necessary” value came out at 0.25 h.
As for `N[C@@H](Cc1c[nH]c2ccccc12)C(=O)O` [Tryptophan, L-tryptophan], the “Amount of citronellal necessary” value stood at 700 mg and the “Heating time necessary” value is recorded as 24 h.
The corresponding values for `NCCCC[C@H](N)C(=O)O` [Lysine, L-(+) lysine] are 700 mg and 0.5 h.

The nature of the next series: Oil solubilization of Peptide A or B using citral. It counts as physicochemical. The settings on record: 2 mg peptide, 0.1 mL citral, 0.1 mL ethanol, 80° C. (Peptide A 3 hours, Peptide B 4 hours); 50 μL ethanol solution + 150 μL IPM. How it is done: The oil solubilization experiment of Peptide A is as follows.
Preparation conditions under heating at 80° C. are as follows.
Preparation conditions under stirring at room temperature are as follows. To 1 mL of a screw-top sample tube were added 2 mg of Peptide B, 0.1 mL of citral and 0.1 mL of ethanol, and the mixture was stirred at room temperature for 22 hours to obtain an ethanol solution.
Regarding `CSCC[C@H](NC(=O)[C@@H](N)CO)C(=O)N[C@@H](CCCCN)C(=O)N[C@H](C(=O)N[C@H](C(=O)N[C@H](C(=O)N[C@@H](C)C(=O)N[C@@H](Cc1ccccc1)C(=O)N[C@@H](CC(N)=O)C(=O)N[C@@H](CCC(N)=O)C(=O)N[C@@H](Cc1ccccc1)C(=O)NCC(=O)N1CCC[C@H]1C(=O)O)C(C)C)[C@@H](C)O)C(C)C` [Peptide B] (H-SMKVTVAFNQFGP-OH; N-terminus and C-terminus assumed), the “Solution state in IPM” value is reported as “pale yellow peptide IPM solution”.
In the case of `CSCC[C@H](NC(=O)[C@H](CC(C)C)NC(=O)[C@@H](NC(=O)[C@H](Cc1ccccc1)NC(=O)CNC(=O)[C@@H](NC(=O)[C@H](CC(C)C)NC(=O)[C@H](CCCCN)NC(=O)[C@H](C)NC(=O)[C@H](Cc1ccccc1)NC(=O)[C@@H](N)CCC(N)=O)[C@@H](C)O)[C@@H](C)O)C(=O)NCC(=O)O` [Peptide A] (H-QFAKLTGFTLMG-OH; N-terminus and C-terminus assumed), the “Solution state in IPM” value is given as “pale yellow peptide IPM solution”.

The series is the same for the next values; noted with them: 2 mg peptide, 0.1 mL citral, 0.1 mL ethanol, stirred at room temperature 22 hours.
In the case of `CSCC[C@H](NC(=O)[C@@H](N)CO)C(=O)N[C@@H](CCCCN)C(=O)N[C@H](C(=O)N[C@H](C(=O)N[C@H](C(=O)N[C@@H](C)C(=O)N[C@@H](Cc1ccccc1)C(=O)N[C@@H](CC(N)=O)C(=O)N[C@@H](CCC(N)=O)C(=O)N[C@@H](Cc1ccccc1)C(=O)NCC(=O)N1CCC[C@H]1C(=O)O)C(C)C)[C@@H](C)O)C(C)C` [Peptide B] (H-SMKVTVAFNQFGP-OH; N-terminus and C-terminus assumed), the “State of ethanol solution” value is given as “yellow gel-like substance”.
